According to patent US4272517A, “Permanent waving compositions” (Kanegafuchi Kagaku Kogyo Kabushiki Kaisha, priority 1978, dated 1981):

How the values were obtained:
[1] = format: physicochemical
Procedure: Eleven kinds of test solutions were prepared with use of L-cysteine and N-carbamoylcysteine in varying ratios as shown in Table 3 to test the solutions for storage stability. Basically these solutions have the following composition.
Each of the solutions was prepared by adding monoethanolamine (about 3 ml), L-cysteine, N-carbamoyl-L-cysteine and tetrasodium ethylenediaminetetraacetate to about 80 ml of purified water in the order mentioned with stirring, and adjusting the resulting solution to 100 ml with its pH adjusted to 9.1 with monoethanolamine. […] Test Solution A is a reference example.
The test solutions were prepared on the same day, placed into 200-ml colorless wide-mouthed reagent bottles respectively and allowed to stand at room temperature (20° to 26° C.) for 60 days with the mouths of the bottles left open. Consequently white powder of cystine separated out on the 9th day from Test Solution A containing L-cysteine alone, whereas Test Solutions B and C further containing N-carbamoyl-L-cysteine yielded white powder on the 15th day and 32nd day respectively. No powdery deposition was found in Test Solutions D to K even after the lapse of 60 days. […]

mice = test: Acute oral toxicity (LD50) determined on mice; format: in vivo; conditions: oral administration
Excerpt: (§1) The N-carbamoylcysteine to be used in this invention is preferably N-carbamoyl-L-cysteine or N-carbamoyl-DL-cysteine from the viewpoint of practical usefulness but can be N-carbamoyl-D-cysteine. N-carbamoyl-L-cysteine can be prepared easily, for example, by reacting L-cysteine with potassium cyanate. Since it is possible to synthesize N-carbamoyl-DL-cysteine from an inexpensive industrial material, the compound can presumably be prepared more economically than N-carbamoyl-L-cysteine.

[2] = Acute oral toxicity (LD50) determined on mice; format: in vivo; conditions: mouse, in vivo, oral administration
Excerpt: as §1

[3] = background statement; cited from earlier work
Solubility = format: physicochemical; conditions: at a pH of below 8.7

| Structure (SMILES) | stabilizing effect on cysteine (in words) [1] | toxicity (in words) (mice) | LD50 [2] [mg/kg] | further results |
| --- | --- | --- | --- | --- |
| CC(=O)N[C@@H](CS)C(=O)O [N-acetylcysteine, N-acetyl-L-cysteine, reference compound] | adds to the stability of cysteine |  |  |  |
| NC(=O)NC(CS)C(=O)O (racemic) [N-carbamoyl-DL-cysteine] |  | extremely low in toxicity | 13100 |  |
| N[C@@H](CSSC[C@H](N)C(=O)O)C(=O)O [cystine] |  |  |  | solubility in water (in words) [3]: hardly soluble in water |
| NC(=O)N[C@@H](CS)C(=O)O [N-carbamoylcysteine] | exceedingly superior |  |  | solubility (in words) (Solubility): not easily soluble |
| NC(=O)N[C@@H](CS)C(=O)O [N-carbamoyl-L-cysteine] |  | extremely low in toxicity | 13500 |  |
